Experimental data published in US7122336B2, “Therapeutic and diagnostic methods for ulcerative colitis and associated disorders” (University of Medicine & Dentistry of New Jersey, priority 2000, dated 2006).
Entries after “also recorded” stand apart in the source; their conditions may differ.

Key:
[1] = system: mucin secretion in LS-180 cells; details: McCool D J, et al. (1995); cited from earlier work
[2] = system: secretion of hTM5 in LS-180 cells; test: Secretion of hTM5 by 35S-methionine-labeled LS-180 cells (chase with drugs, immunoprecipitation of culture medium, SDS-PAGE-fluorography, densitometry of 31 kDa band); type: cell-based, human; details: PMA 10 μM; for effect on the secretion of hTM5 (in words): 7E12H12 and LC-1 immunoprecipitations (FIGS. 7B and 7C); for effect on the secretion of hTM5 (in words) / stimulation of the secretion of hTM5 (31 kDa band, densitometry) compared to only DMSO treatment: A23187 2 μM, 2 h chase; for stimulation of the secretion of hTM5 (31 kDa band, densitometry) compared to only DMSO treatment: LS-180 culture medium; for effect of inhibitors of secretion on the secretion of hTM5 (in words): LC-1 immunoprecipitation (FIG. 7D), monensin 10 μM, methylamine 10 mM added during the chase
Procedure: (§1) A) Culture supernatant of LS-180 cells, labeled with […] (100 μCi/ml) for 16 h and chased for 2 h incubated with various drugs, was immunoprecipitated and analyzed by 3–12% SDS-PAGE-fluorography. For untreated cells, 10 μl/ml of DMSO was added during the chase. Immunoprecipitation was performed using 7E12H12 (lanes 1–4) or LC-1 (lanes 5–8) mAbs. Lanes 1 and 5 show the immunoprecipitation profile of the culture supernatant from untreated cells. Note the presence of a 31 kDa protein in lanes 1 and 5. The effect of secretagogues was examined by addition of 2 μM A23187 (lanes 2 and 7) or 10 μM PMA (lanes 3 and 6) during the chase. To examine the combined effect, A23187 (2 μM) and PMA (10 μM) were added together (lanes 4 and 8, respectively). B and C) For quantitative determination, a densitometric analysis of the 31 kDa band, coimmunoprecipitated with CEP (lanes 1–4) or hTM5 (lane 5–8) was performed with a 1 square millimeter window using a BioRad 670 densitometer after overnight exposure of the gel. Histograms B and C represent lanes 1–4 and 5–8 respectively. D) Effect of inhibitors of secretion on the secretion of hTM5. The inhibitors were added during the chase and the culture medium was immunoprecipitated with LC-1 mAb. Lane-1: PMA (10 μM), Lane-2: DMSO only, Lane-3: monensin (10 μM), and Lane-4: methylamine (10 mM) and analyzed by 3–12% gradient SDS-PAGE-fluorography.
To examine the possible association of hTM5 with the colon epithelium-specific protein (CEP), reactive with 7E12H12 monoclonal antibody, we adopted the protocols for radiolabeling, chase and drug treatment used in the study of regulated and unregulated secretion of glycoproteins from colon cancer cells (McCool DJ., et al., Biochem J. 1995; 312: 125–33; and Brion C., et al., J. Biol. Chem. 1992; 267: 1477–83). LS-180 cells were labeled with ^35S-methionine by treatment with methionine-free medium supplemented with 5% dialyzed fetal bovine serum and ^35S-methionine (100 μCi/ml) for 16 hours. Labeling was terminated by washing the cells two times with PBS followed by chase with regular DME for 2 hr. To examine the effects of stimulators and inhibitors of secretion, appropriate drugs were added during the chase period as described (McCool et al., supra; and Brion, et al., supra). Immunoprecipitations were performed on the culture medium as described in Kesari, K V and Geliebter, J. Immunol. Letts 1993: 38: 77–83. After the chase, the culture medium was collected, centrifuged to remove any insoluble material, and mixed with one tenth volume of 10× lysis buffer (500 mM Tris Cl, […], 5% NP40, and protease inhibitor cocktail, Complete, Boehringer-Mannheim, GMBH, Germany). To reduce nonspecific binding, the culture medium, where LS-180 cells were grown, was preabsorbed with protein G agarose (GIBCO-BRL, NY) for 16 h at 4° C. Immunoprecipitation was carried out on ice with purified monoclonal antibodies (5 μg/ml) or ascites (10 μl/ml) for 2 h and the immune complexes were collected on Protein G Agarose. To collect IgM immune complexes, protein G Agarose was pre-coated with affinity purified rabbit anti mouse IgM-μ chain-specific immunoglobulins (2 mg IgG/ml gel). The immune complexes were washed three times by centrifugation with ice cold washing buffer-1 (50 mM Tris Cl, pH 7.4, 150 mM NaCl, 5 mM EDTA, and 0.5% NP40), followed by one wash in buffer-2 (50 mM Tris Cl, pH 7.4, 500 mM MaCl, 5 mM EDTA, and 0.5% NP40), and once with buffer-3 (50 mM Tris Cl, pH 7.4).
To investigate whether the release of hTM5 from LS-180 cells is an active process, the effect of known stimulators (secretagogues), and inhibitors of secretion was examined in the present invention. Two secretagogues, the Ca ^2 ionophore A23187, and phorbol-12-myristate-13-acetate (PMA) have been used to explore the secretory pathways in LS-180 cells (McCool D J et al (1995) supra). […]

[3] = system: secretion of CEP in LS-180 cells; test: Secretion of CEP by 35S-methionine-labeled LS-180 cells (immunoprecipitation with 7E12H12); type: cell-based, human; details: 7E12H12 immunoprecipitation (FIG. 7A, lanes 1-4); A23187 2 μM, PMA 10 μM, or both
Procedure: as §1, with “gradient SDS-PAGE-fluorography. […]” for “gradient SDS-PAGE-fluorography.”

[4] = system: CEP; test: Cell surface expression of CEP; type: cell-based

| SMILES | effect on mucin secretion in LS-180 cells [1] | effect on the secretion of hTM5 (in words) [2] | stimulation of the secretion of hTM5 (31 kDa band, densitometry) compared to only DMSO treatment ([2]; 7E12H12 immunoprecipitation (FIG. 7B)) [fold] | stimulation of the secretion of hTM5 (31 kDa band, densitometry) compared to only DMSO treatment ([2]; LC-1 immunoprecipitation (FIG. 7C)) [fold] | effect on secretion of CEP (in words) [3] | effect of inhibitors of secretion on the secretion of hTM5 (in words) [2] | cell surface expression of CEP, sensitivity to drug [4] |
| --- | --- | --- | --- | --- | --- | --- | --- |
| CNc1ccc2oc(C[C@H]3O[C@@]4(CC[C@H]3C)O[C@H]([C@H](C)C(=O)c3ccc[nH]3)[C@H](C)C[C@H]4C)nc2c1C(=O)O [A23187] | stimulate | increased | 4.5 | 7.8 | unaffected |  |  |
| CCCCCCCCCCCCCC(=O)O[C@@H]1[C@@H](C)[C@@]2(O)[C@@H](C=C(CO)C[C@]3(O)C(=O)C(C)=C[C@@H]23)[C@@H]2C(C)(C)[C@]12OC(C)=O [PMA, phorbol-12-myristate-13-acetate] | stimulate | almost totally inhibited |  |  | unaffected | absence of hTM5 |  |
| CN [methylamine] |  |  |  |  |  | inhibited; also recorded: absence of hTM5 |  |
| CC[C@@]1([C@@H]2O[C@@H]([C@H]3O[C@@](O)(CO)[C@H](C)C[C@@H]3C)C[C@@H]2C)CC[C@H]([C@]2(C)CC[C@]3(C[C@H](O)[C@@H](C)[C@@H]([C@@H](C)[C@@H](OC)[C@H](C)C(=O)O)O3)O2)O1 [monensin] |  |  |  |  |  | inhibited; also recorded: absence of hTM5 | sensitive |
